Entries after “also recorded” stand apart in the source; their conditions may differ.
What was measured:
[1] = cited from earlier work
[2] = dog, intravenous radiolabeled dose; cited from earlier work
[3] = Effect of nelfinavir on the pharmacokinetics of a single oral dose of azithromycin (crossover study); settings: co-administration with nelfinavir vs azithromycin alone
Method: (§1) Healthy volunteers received nelfinavir for 11 days. On Day 9 a single dose of azithromycin was administered. Each subject also received a single control dose of 1200 mg azithromycin either two weeks before the start of a nelfinavir treatment regimen or three weeks after a nelfinavir treatment regimen.
(§2) Nelfinavir was administered as 3 commercial 250 mg tablets, 3 times per day (morning dose at approximately 7 am; afternoon dose at approximately 3 pm; evening dose at approximately 10 pm) with food for 11 days. On day 9, azithromycin (1200 mg) was dosed as 2 600 mg commercial tablets at the same time as the morning dose of nelfinavir. On day 9 the subjects, who were previously fasted for at least 8 hr, consumed a standard breakfast consisting of cereal and/or toast with butter and jelly, and milk. Immediately following the standard breakfast, the subjects consumed 750 mg nelfinavir and 1200 mg azithromycin, with 120 ml water. On the day on which azithromycin alone was dosed, 2 600 mg commercial tablets were dosed with 120 ml water, immediately following the standard breakfast.
(§3) Serum samples were assayed for azithromycin utilizing LC/MS/MS. […] Concentrations below the lower limits of quantification were utilized as 0.00 μg/ml in the calculations.
(§4) Maximum observed azithromycin concentrations (Cmax) were determined by inspection of the data. Tmax was defined as the time of first occurrence of Cmax. […] Area under the serum concentration versus time curves (AUClast) were calculated for the interval of pre-dose to the last time at which concentrations of azithromycin were measurable. Total exposure was estimated as AUC for the interval of pre-dose to infinity. AUC=AUClast+C*last/kei, where C*last is the concentration estimated from the aforementioned regression at the time of the last quantifiable concentration of drug.
(§5) Geometric mean values of Cmax, AUC, Cmax ratios, and AUC ratios were determined. Arithmetic means of other parameters were determined.

clinical = settings: human, serum, po, 1200 mg
Method: as §1, §2, §3, §4, §5

Caco-2 cell monolayers = test: Azithromycin transport across Caco-2 cell monolayers, with and without P-glycoprotein inhibitors; format: in vitro ADME
Method: Caco-2 cell monolayers were grown on permeable transwell-col filter supports (24.5 mm diameter, 0.45 μm pore size) and used in these studies at day 21-24. 2 mls of 0.4 μM ^14C Azithromycin in Hank's balanced salt solution (HBSS) was added to the donor chamber and 2 mls of HBSS was added to the acceptor chamber. An impermeable marker, ^3H Mannitol, was included in these studies to ensure the monolayers were intact. […] Transport was monitored in the apical to basolateral (absorptive) and basolateral to apical (secretory) direction. The wells were incubated for 1 hour (unstirred) at 37° C. Samples were removed after the incubation period and analyzed by dual label LSC. The transport was calculated as percent flux/hr. [formula]
Transport measurements were made in controls, implemented in like fashion except no test compound was included.

[4] = tested on: CACO-2 (colon carcinoma) cells; settings: cultured CACO-2 cells; cited from earlier work
[5] = humans, no p-gp inhibitor; cited from earlier work
[6] = in vivo; cited from earlier work
[7] = in vivo; cited from earlier work; remark: listed apart in the source

| Compound | effect on midazolam plasma levels ([1]; co-dosed with midazolam (Zimmerman et al.; Backman et al.)) | recovered radiolabel eliminated across the intestinal wall [2] [%] | increase of mean AUC0-∞ for azithromycin ([3]; p=0.0001) [%] | increase of mean Cmax ([3]; p=0.0003) [%] | AUC(0-inf) (clinical) [ng·h/mL] | Cmax (clinical) [ng/mL] | substrate for the P-glycoprotein efflux transporter (Caco-2 cell monolayers; Caco-2) | % Flux/hr B-A (Caco-2 cell monolayers; human, Caco-2, 1 h, 0.4 μM) [% flux/hr] | % flux/hr A-B (Caco-2 cell monolayers; human, Caco-2, 1 h, 0.4 μM) [% flux/hr] | basolateral-to-apical azithromycin flux versus apical-to-basolateral flux [4] | oral bioavailability [5] [%] | interaction with (effect on plasma levels of) HIV protease inhibitors saquinavir, ritonavir, indinavir, nelfinavir [6] | elimination half-life [7] [h] | increase in midazolam AUC ([1]; midazolam co-dosed with erythromycin (Zimmerman et al.)) [%] |
| --- | --- | --- | --- | --- | --- | --- | --- | --- | --- | --- | --- | --- | --- | --- |
| CC[C@H]1OC(=O)[C@H](C)[C@@H](O[C@H]2C[C@@](C)(OC)[C@@H](O)[C@H](C)O2)[C@H](C)[C@@H](O[C@@H]2O[C@H](C)C[C@H](N(C)C)[C@H]2O)[C@](C)(O)C[C@@H](C)CN(C)[C@H](C)[C@@H](O)[C@]1(C)O [Azithromycin, 9a-aza-9a-methyl-9deoxo-9a-homoerythromycin A] | no effect; also recorded: did not increase | 40 | 112 | 137 | 11500 | 889 | is a substrate | 6.6 | 0.1 | exceeded | 37 | does not interact | 69 | – |
| CC[C@H]1OC(=O)[C@H](C)[C@@H](O[C@H]2C[C@@](C)(OC)[C@@H](O)[C@H](C)O2)[C@H](C)[C@@H](O[C@@H]2O[C@H](C)C[C@H](N(C)C)[C@H]2O)[C@](C)(OC)C[C@@H](C)C(=O)[C@H](C)[C@@H](O)[C@]1(C)O [clarithromycin] | – | – | – | – | – | – | – | – | – | – | – | exhibit an interaction with all but nelfinavir | – | – |
| CC[C@H]1OC(=O)[C@H](C)[C@@H](O[C@H]2C[C@@](C)(OC)[C@@H](O)[C@H](C)O2)[C@H](C)[C@@H](O[C@@H]2O[C@H](C)C[C@H](N(C)C)[C@H]2O)[C@](C)(O)C[C@@H](C)C(=O)[C@H](C)[C@@H](O)[C@]1(C)O [erythromycin] | – | – | – | – | – | – | – | – | – | – | – | – | – | 380 |
